The results in this text go back to patent publication US20200131129A1, “FARNESOID X RECEPTOR AGONISTS AND USES THEREOF” (Metacrine, Inc., priority 2017, published 2020).

This assay deals with T1, hFXR (Homo sapiens, UniProt Q96RI1).
T1 construct: expressed in transfected cells; host or cells: CV-1 cells
T1 sequence (Q96RI1 1-486): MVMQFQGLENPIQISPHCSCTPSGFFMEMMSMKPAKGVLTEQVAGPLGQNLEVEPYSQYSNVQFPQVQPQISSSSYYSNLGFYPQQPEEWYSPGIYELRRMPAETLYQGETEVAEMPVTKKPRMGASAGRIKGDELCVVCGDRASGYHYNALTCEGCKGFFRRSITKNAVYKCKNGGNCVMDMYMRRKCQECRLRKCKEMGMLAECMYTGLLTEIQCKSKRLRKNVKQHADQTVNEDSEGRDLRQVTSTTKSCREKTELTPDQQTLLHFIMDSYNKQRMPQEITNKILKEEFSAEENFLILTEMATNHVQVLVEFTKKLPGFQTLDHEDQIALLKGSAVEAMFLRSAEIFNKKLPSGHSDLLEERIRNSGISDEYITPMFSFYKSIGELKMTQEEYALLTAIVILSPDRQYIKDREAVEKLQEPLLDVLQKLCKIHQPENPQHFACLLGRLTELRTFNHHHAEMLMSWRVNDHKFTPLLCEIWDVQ
T1 sequence (P19793 1-462 partner): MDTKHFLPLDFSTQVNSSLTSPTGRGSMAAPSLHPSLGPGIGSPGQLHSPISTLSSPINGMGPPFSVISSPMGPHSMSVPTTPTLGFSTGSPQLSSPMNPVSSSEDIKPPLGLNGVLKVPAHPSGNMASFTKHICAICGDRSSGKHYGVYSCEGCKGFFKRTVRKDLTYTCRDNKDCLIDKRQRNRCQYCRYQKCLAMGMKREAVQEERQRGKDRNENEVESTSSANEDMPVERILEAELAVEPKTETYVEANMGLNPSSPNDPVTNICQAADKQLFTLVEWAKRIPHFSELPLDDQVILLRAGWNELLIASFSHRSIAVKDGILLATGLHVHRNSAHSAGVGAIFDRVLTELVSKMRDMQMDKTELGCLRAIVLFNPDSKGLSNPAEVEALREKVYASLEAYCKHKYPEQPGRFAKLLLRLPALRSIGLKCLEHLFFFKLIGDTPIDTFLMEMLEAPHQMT
Description: In Vitro FXR Assay (TK): hFXR/hRXR TK-ECRE-luc reporter in transfected CV-1 cells. It counts as cell-based. The following applies: CV-1 cells transfected with hFXR, hRXR, 18 hrs incubation, luminescence, maximum efficacy <25% of Fexarmine control also classified as ‘+’. In short, it runs like this: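 CV-1 cells in charcoal-stripped serum were transiently transfected with hFXR, hRXR, TK-ECRE-luc reporter and pCMX-YFP plasmids for 18 h at 37 °C. Serially diluted compounds were added for 18 h, then cells were lysed and luciferase luminescence read.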

A value given as a limit tells only on which side of the number the result lay.

Regarding `COc1ccc([C@H]2CC[C@H](CN(c3cccc(C#Cc4ncns4)c3)C(=O)[C@H]3CC[C@H](O)CC3)CC2)cc1C` [Compound 11, trans-N-(3-((1,2,4-Thiadiazol-5-yl)ethynyl)phenyl)-4-hydroxy-N-((trans-4-(4-methoxy-3-methylphenyl)cyclohexyl)methyl)cyclohexanecarboxamide], the EC50 (usually the concentration that produces a half-maximal response) is no more than 500 nM.
`COc1ncc(-c2cccc(N(C[C@H]3CC[C@H](c4ccc(OC)c(C)c4)CC3)C(=O)[C@H]3CC[C@H](O)CC3)c2)cn1` [Compound 1.02, trans-4-Hydroxy-N-((trans-4-(4-methoxy-3-methylphenyl)cyclohexyl)methyl)-N-(3-(2-methoxypyrimidin-5-yl)phenyl)cyclohexanecarboxamide] showed an EC50 of no more than 500 nM.
The value for `COc1ccc([C@H]2CC[C@H](CN(c3cccc(C#Cc4nnn(C)n4)c3)C(=O)[C@H]3CC[C@H](O)CC3)CC2)cc1C` [Compound 11.03, trans-4-Hydroxy-N-((trans-4-(4-methoxy-3-methylphenyl)cyclohexyl)methyl)-N-(3-((2-methyl-2H-tetrazol-5-yl)ethynyl)phenyl) cyclohexanecarboxamide] was no more than 500 nM; that for `COc1ccc([C@H]2CC[C@H](CN(c3cc(-c4coc(C5CC5)n4)ccn3)C(=O)[C@H]3CC[C@H](O)CC3)CC2)nc1C#N` [Compound 10.19, trans-N-((trans-4-(6-Cyano-5-methoxypyridin-2-yl)cyclohexyl)methyl)-N-(4-(2-cyclopropyloxazol-4-yl)pyridine-2-yl)-4-hydroxycyclohexanecarboxamide] was no more than 500 nM; that for `COc1ccc([C@H]2CC[C@H](CN(c3cccc(-c4ccc(OC(C)C)nc4)c3)C(=O)[C@H]3CC[C@H](O)CC3)CC2)cc1C` [Compound 1.06, trans-4-Hydroxy-N-(3-(6-isopropoxypyridin-3-yl)phenyl)-N-((trans-4-(4-methoxy-3-methylphenyl)cyclohexyl)methyl)cyclohexanecarboxamide] was no more than 500 nM.
`CN(C)c1ccc(C23CCC(CN(c4cccc(-c5coc(C6CC6)n5)c4)C(=O)[C@H]4CC[C@H](O)CC4)(CC2)CC3)cn1` [Compound 10.03, trans-N-(3-(2-Cyclopropyloxazol-4-yl)phenyl)-N-((4-(6-(dimethylamino)pyridine-3-yl)bicyclo[2.2.2]octan-1-yl)methyl)-4-hydroxycyclohexanecarboxamide] had an EC50 of no more than 500 nM.
`COc1ccc([C@H]2CC[C@H](CN(c3cccc(-c4nc(C)ns4)c3)C(=O)[C@H]3CC[C@H](O)CC3)CC2)cc1C` [Compound 2.08, trans-4-Hydroxy-N-((trans-4-(4-methoxy-3-methylphenyl)cyclohexyl)methyl)-N-(3-(3-methyl-1,2,4-thiadiazol-5-yl)phenyl)cyclohexanecarboxamide] showed an EC50 of 500 to 1000 nM.
With `COc1ccc([C@H]2CC[C@H](CN(c3cccc(-c4cc(C5CC5)ns4)c3)C(=O)[C@H]3CC[C@H](O)CC3)CC2)nc1C` [Compound 10.08, trans-N-(3-(3-Cyclopropylisothiazol-5-yl)phenyl)-4-hydroxy-N-((trans-4-(5-methoxy-6-methylpyridin-2-yl)cyclohexyl)methyl) cyclohexanecarboxamide], the EC50 was no more than 500 nM.
`COc1ccc(-c2cccc(N(C[C@H]3CC[C@H](c4ccc(OC)c(C)c4)CC3)C(=O)[C@H]3CC[C@H](O)CC3)c2)cc1C` [Compound 1.08, trans-4-Hydroxy-N-(4′-methoxy-3′-methyl-[1,1′-biphenyl]-3-yl)-N-((trans-4-(4-methoxy-3-methylphenyl)cyclohexyl)methyl)cyclohexanecarboxamide] returned a concentration for a half-maximal effect (EC50) of 500 to 1000 nM.
`COc1ccc([C@H]2CC[C@H](CN(c3cccc(-c4ccc(N(C)C)nc4)c3)C(=O)[C@H]3CC[C@H](O)CC3)CC2)nc1C` [Compound 10.15, trans-N-(3-(6-(Dimethylamino)pyridine-3-yl)phenyl)-4-hydroxy-N-((trans-4-(5-methoxy-6-methylpyridin-2-yl)cyclohexyl)methyl) cyclohexanecarboxamide] came in with a 50% effective concentration (EC50) of no more than 500 nM.
In the case of `COc1ccc([C@H]2CC[C@H](CN(c3cccc(-c4noc(C)n4)c3)C(=O)[C@H]3CC[C@H](O)CC3)CC2)cc1C` [Compound 9.11, trans-4-Hydroxy-N-((trans-4-(4-methoxy-3-methylphenyl)cyclohexyl)methyl)-N-(3-(5-methyl-1,2,4-oxadiazol-3-yl)phenyl)cyclohexanecarboxamide], the EC50 lay within 500 to 1000 nM.
As for `COc1cnc([C@H]2CC[C@H](CN(c3cccc(-c4coc(C5CC5)n4)c3)C(=O)[C@H]3CC[C@H](O)CC3)CC2)cc1C` [Compound 10.16, trans-N-(3-(2-Cyclopropyloxazol-4-yl)phenyl)-4-hydroxy-N-((trans-4-(5-methoxy-4-methylpyridin-2-yl)cyclohexyl)methyl) cyclohexanecarboxamide], the EC50 lay in the range of 500 to 1000 nM.
In turn, `COc1ccc(-c2cccc(N(C[C@H]3CC[C@H](c4ccc(OC)c(C)c4)CC3)C(=O)[C@H]3CC[C@H](O)CC3)c2)cn1` [Compound 1.01, trans-4-Hydroxy-N-((trans-4-(4-methoxy-3-methylphenyl)cyclohexyl)methyl)-N-(3-(6-methoxypyridin-3-yl)phenyl)cyclohexanecarboxamide] displayed an EC50 of no more than 500 nM.
The compound `COc1ccc([C@H]2CC[C@H](CN(c3cccc(-c4cnc(C5CC5)o4)c3)C(=O)[C@H]3CC[C@H](O)CC3)CC2)cc1C` [Compound 9.12, trans-N-(3-(2-Cyclopropyloxazol-5-yl)phenyl)-4-hydroxy-N-((trans-4-(4-methoxy-3-methylphenyl)cyclohexyl)methyl) cyclohexanecarboxamide] registered an EC50 of no more than 500 nM.
Regarding `COc1ccc([C@H]2CC[C@H](CN(c3cccc(-c4ncco4)c3)C(=O)[C@H]3CC[C@H](O)CC3)CC2)cc1C` [Compound 3.01, trans-4-Hydroxy-N-((trans-4-(4-methoxy-3-methylphenyl)cyclohexyl)methyl)-N-(3-(oxazol-2-yl)phenyl)cyclohexanecarboxamide], the concentration for a half-maximal effect (EC50) was no less than 1000 nM.
On to `COc1cnc(-c2cccc(N(C[C@H]3CC[C@H](c4ccc(OC)c(C)c4)CC3)C(=O)[C@H]3CC[C@H](O)CC3)c2)nc1` [Compound 2.01, trans-4-Hydroxy-N-((trans-4-(4-methoxy-3-methylphenyl)cyclohexyl)methyl)-N-(3-(5-methoxypyrimidin-2-yl)phenyl)cyclohexanecarboxamide], for which the EC50 was no more than 500 nM.
The value for `COc1ccc([C@H]2CC[C@H](CN(c3cccc(C#Cc4ncco4)c3)C(=O)[C@H]3CC[C@H](O)CC3)CC2)cc1C` [Compound 11.01, trans-4-Hydroxy-N-((trans-4-(4-methoxy-3-methylphenyl)cyclohexyl)methyl)-N-(3-(oxazol-2-ylethynyl)phenyl)cyclohexanecarboxamide] was no more than 500 nM; that for `COc1ccc([C@H]2CC[C@H](CN(c3cccc(-c4cc(C)ns4)c3)C(=O)[C@H]3CC[C@H](O)CC3)CC2)cc1C` [Compound 2.06, trans-4-Hydroxy-N-((trans-4-(4-methoxy-3-methylphenyl)cyclohexyl)methyl)-N-(3-(3-methylisothiazol-5-yl)phenyl)cyclohexanecarboxamide] was no more than 500 nM.
In turn, `COc1cnc(-c2cccc(N(C[C@H]3CC[C@H](c4ccc(OC)c(C)c4)CC3)C(=O)[C@H]3CC[C@H](O)CC3)c2)cn1` [Compound 2.02, trans-4-Hydroxy-N-((trans-4-(4-methoxy-3-methylphenyl)cyclohexyl)methyl)-N-(3-(5-methoxypyrazin-2-yl)phenyl)cyclohexanecarboxamide] yielded an EC50 of no more than 500 nM.
The value for `COc1ccc([C@H]2CC[C@H](CN(c3cc(-c4coc(C(C)C)n4)ccn3)C(=O)[C@H]3CC[C@H](O)CC3)CC2)cc1C` [Compound 10.13, trans-4-Hydroxy-N-(4-(2-isopropyloxazol-4-yl)pyridine-2-yl)-N-((trans-4-(4-methoxy-3-methylphenyl)cyclohexyl)methyl) cyclohexanecarboxamide] was no more than 500 nM; that for `COc1ccc([C@H]2CC[C@H](CN(c3cccc(-c4coc(C5CC5)n4)c3)C(=O)[C@H]3CC[C@H](O)CC3)CC2)cc1C` [Compound 9.15] was no more than 500 nM; that for `COc1ccc([C@H]2CC[C@H](CN(c3cccc(-c4cc(C5CC5)ns4)c3)C(=O)[C@H]3CC[C@H](O)CC3)CC2)cc1C` [Compound 9, trans-N-(3-(3-Cyclopropylisothiazol-5-yl)phenyl)-4-hydroxy-N-((trans-4-(4-methoxy-3-methylphenyl)cyclohexyl)methyl)cyclohexanecarboxamide] was no more than 500 nM.
